Among the data in US11208412B2 (DAEGU-GYEONGBUK MEDICAL INNOVATION FOUNDATION, priority 2017, dated 2021) are remaining binding values, retold here.

What all share (experiment): Kinase selectivity, DiscoverX scanMAX Kinase assay panel (% control)
Common to all, as to assay type: binding

Assay [1] has as its target T1, kinases of the scanMAX Kinase assay panel (Homo sapiens, UniProt Q86UE8).
T1 construct: purchased DiscoverX Co. (contract measurement) scanMAX Kinase assay panel
Conditions: kinase TLK2; 1 uM in DMSO. In short, it runs like this: (§1)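 Compounds tested at 1 uM against the scanMAX kinase panel. Signal expressed as % control = (compound − positive control)/(DMSO negative control − positive control) × 100, where positive control = 0% and DMSO = 100%; below 35% counted as activity on that kinase.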

In assay [2] the target is T2, kinases of the scanMAX Kinase assay panel (Homo sapiens, UniProt O15530).
T2 construct: purchased DiscoverX Co. (contract measurement) scanMAX Kinase assay panel
T2 sequence (O15530 1-556): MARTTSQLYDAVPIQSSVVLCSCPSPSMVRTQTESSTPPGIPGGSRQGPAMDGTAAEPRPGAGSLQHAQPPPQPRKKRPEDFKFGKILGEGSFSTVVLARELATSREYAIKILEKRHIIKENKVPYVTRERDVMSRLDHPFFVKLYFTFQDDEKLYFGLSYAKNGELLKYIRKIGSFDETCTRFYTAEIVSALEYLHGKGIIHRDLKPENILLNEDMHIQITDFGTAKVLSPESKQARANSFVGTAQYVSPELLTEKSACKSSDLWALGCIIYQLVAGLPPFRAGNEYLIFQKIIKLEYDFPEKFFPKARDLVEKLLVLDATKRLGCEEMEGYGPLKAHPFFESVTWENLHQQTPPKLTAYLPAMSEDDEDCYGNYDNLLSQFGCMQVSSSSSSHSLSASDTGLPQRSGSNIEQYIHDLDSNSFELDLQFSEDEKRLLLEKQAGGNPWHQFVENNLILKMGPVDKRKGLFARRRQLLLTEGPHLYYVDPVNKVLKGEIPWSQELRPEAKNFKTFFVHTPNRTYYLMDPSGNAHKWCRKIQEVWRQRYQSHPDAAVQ
The note with it: PDPK1; 1 uM. In short, it runs like this: as §1

The target in assay [3] is T3, kinases of the scanMAX Kinase assay panel (Homo sapiens, UniProt P54762).
T3 construct: purchased DiscoverX Co. (contract measurement) scanMAX Kinase assay panel
T3 sequence (P54762 18-984): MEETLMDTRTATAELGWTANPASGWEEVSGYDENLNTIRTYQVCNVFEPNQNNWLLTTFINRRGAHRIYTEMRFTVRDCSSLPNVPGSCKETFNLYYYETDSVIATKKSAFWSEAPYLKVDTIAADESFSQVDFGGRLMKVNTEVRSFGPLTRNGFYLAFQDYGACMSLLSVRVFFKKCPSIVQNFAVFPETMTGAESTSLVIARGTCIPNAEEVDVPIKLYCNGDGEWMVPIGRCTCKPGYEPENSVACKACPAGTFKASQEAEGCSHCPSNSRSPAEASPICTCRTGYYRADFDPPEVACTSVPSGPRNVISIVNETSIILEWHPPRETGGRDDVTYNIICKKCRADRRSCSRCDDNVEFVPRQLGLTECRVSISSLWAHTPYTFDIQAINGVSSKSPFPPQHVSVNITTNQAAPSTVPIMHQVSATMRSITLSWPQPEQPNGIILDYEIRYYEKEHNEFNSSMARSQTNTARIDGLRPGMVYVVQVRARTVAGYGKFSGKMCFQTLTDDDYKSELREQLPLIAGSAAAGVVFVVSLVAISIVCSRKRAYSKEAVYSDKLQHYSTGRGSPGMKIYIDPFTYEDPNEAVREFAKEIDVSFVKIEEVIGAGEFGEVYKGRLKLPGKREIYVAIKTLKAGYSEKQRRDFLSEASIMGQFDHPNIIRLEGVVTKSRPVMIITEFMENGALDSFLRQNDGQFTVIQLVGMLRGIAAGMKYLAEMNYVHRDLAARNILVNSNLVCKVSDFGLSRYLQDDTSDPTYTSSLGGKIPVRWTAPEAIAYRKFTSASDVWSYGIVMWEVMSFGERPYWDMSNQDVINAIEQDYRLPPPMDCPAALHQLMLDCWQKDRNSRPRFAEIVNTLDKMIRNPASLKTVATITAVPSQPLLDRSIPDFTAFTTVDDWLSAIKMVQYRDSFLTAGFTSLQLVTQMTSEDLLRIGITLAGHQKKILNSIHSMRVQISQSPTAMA
Conditions: EPHB1; 1 uM. In short, it runs like this:
as §1

The target of assay [4] is T4, kinases of the scanMAX Kinase assay panel (Homo sapiens, UniProt Q13233).
T4 construct: purchased DiscoverX Co. (contract measurement) scanMAX Kinase assay panel
The note with it: MAP3K1; 1 uM. In outline:
as §1

Assay [5] deals with T5, kinases of the scanMAX Kinase assay panel (Homo sapiens, UniProt P22694).
T5 construct: purchased DiscoverX Co. (contract measurement) scanMAX Kinase assay panel
Conditions: PKAC-beta; 1 uM. In outline: as §1

In assay [6] the target is T6, kinases of the scanMAX Kinase assay panel (Homo sapiens, UniProt P49759).
T6 construct: purchased DiscoverX Co. (contract measurement) scanMAX Kinase assay panel
The note with it: CLK1; 1 uM. In short, it runs like this: as §1

Assay [7] has as its target T7, kinases of the scanMAX Kinase assay panel (Homo sapiens, UniProt Q9UKI8).
T7 construct: purchased DiscoverX Co. (contract measurement) scanMAX Kinase assay panel
T7 sequence (Q9UKI8 1-766): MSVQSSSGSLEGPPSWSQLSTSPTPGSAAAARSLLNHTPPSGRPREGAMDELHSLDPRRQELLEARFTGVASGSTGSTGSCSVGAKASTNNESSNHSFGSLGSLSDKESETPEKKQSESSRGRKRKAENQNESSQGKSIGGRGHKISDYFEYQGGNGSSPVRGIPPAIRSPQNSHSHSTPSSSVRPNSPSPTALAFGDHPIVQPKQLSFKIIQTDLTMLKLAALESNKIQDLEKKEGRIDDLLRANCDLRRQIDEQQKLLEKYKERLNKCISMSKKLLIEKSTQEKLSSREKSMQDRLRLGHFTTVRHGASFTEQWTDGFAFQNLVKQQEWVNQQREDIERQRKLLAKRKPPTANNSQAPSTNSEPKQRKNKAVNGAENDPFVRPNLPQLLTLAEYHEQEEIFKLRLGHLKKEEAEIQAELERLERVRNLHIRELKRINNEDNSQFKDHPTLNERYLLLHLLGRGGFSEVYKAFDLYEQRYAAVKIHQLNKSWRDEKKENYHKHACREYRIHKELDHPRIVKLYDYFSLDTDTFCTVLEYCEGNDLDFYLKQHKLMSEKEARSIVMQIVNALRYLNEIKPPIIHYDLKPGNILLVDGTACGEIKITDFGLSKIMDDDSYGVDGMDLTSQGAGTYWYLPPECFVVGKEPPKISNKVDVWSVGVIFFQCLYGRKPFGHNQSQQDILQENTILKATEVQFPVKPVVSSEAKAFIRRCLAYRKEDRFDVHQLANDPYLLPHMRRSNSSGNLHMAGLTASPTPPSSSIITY
Conditions: kinase TLK1; 1 uM in DMSO. In short, it runs like this:
as §1

T1 sequence (Q86UE8 whole entry): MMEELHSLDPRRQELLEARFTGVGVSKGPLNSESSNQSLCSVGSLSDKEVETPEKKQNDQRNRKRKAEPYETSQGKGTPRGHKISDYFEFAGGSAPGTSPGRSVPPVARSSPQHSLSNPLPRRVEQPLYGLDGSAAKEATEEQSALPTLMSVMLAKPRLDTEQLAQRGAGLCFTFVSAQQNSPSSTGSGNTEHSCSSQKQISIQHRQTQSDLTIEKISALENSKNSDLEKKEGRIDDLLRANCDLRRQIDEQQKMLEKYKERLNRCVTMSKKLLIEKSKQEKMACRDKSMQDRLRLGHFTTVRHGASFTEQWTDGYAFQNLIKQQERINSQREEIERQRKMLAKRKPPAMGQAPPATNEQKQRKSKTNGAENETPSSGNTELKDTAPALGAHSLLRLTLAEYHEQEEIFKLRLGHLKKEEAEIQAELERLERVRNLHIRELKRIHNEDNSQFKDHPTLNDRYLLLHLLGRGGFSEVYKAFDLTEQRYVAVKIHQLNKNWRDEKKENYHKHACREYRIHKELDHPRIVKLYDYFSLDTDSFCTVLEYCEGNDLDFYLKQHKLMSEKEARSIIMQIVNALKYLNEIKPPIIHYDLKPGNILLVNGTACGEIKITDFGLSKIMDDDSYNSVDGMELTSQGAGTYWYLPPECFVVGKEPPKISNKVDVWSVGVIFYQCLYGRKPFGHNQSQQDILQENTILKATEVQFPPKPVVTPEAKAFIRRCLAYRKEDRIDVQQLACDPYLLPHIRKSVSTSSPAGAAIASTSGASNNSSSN
T4 sequence (Q13233 whole entry): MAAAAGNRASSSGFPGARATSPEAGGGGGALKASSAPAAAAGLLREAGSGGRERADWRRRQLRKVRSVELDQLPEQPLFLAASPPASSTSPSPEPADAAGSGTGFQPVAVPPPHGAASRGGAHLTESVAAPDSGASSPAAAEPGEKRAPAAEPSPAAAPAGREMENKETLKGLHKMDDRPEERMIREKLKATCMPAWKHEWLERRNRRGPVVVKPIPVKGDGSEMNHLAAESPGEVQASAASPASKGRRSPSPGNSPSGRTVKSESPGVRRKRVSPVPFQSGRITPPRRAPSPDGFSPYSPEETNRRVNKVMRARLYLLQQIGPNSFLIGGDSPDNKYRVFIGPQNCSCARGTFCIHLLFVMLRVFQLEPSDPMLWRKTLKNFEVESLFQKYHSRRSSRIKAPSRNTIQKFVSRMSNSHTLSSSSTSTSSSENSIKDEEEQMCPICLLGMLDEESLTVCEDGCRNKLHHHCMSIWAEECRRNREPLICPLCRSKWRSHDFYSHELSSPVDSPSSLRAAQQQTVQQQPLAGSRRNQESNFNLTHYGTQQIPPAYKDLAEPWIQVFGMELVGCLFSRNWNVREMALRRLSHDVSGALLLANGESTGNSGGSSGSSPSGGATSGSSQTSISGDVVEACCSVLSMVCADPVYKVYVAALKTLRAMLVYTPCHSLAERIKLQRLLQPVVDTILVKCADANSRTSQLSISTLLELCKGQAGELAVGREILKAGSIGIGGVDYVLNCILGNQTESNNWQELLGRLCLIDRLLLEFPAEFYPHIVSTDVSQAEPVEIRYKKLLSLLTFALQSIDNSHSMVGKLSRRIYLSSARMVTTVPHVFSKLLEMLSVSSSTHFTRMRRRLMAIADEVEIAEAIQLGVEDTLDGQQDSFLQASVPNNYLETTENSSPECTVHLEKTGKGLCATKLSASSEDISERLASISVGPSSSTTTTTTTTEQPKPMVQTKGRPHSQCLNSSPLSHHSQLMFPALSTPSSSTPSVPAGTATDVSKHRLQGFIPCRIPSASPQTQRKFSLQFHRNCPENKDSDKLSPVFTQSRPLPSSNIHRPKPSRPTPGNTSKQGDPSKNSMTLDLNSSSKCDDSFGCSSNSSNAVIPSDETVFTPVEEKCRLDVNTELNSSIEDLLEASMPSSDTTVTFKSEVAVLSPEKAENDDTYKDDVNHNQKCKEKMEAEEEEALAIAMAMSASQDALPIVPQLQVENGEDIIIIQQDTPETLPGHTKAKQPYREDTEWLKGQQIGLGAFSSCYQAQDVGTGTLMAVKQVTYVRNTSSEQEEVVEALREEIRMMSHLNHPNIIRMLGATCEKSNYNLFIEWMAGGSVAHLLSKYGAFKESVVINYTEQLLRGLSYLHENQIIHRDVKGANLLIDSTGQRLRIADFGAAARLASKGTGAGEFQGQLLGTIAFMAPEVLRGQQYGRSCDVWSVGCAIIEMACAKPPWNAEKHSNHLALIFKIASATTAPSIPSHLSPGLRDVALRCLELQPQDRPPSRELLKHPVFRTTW
T6 sequence (P49759 whole entry): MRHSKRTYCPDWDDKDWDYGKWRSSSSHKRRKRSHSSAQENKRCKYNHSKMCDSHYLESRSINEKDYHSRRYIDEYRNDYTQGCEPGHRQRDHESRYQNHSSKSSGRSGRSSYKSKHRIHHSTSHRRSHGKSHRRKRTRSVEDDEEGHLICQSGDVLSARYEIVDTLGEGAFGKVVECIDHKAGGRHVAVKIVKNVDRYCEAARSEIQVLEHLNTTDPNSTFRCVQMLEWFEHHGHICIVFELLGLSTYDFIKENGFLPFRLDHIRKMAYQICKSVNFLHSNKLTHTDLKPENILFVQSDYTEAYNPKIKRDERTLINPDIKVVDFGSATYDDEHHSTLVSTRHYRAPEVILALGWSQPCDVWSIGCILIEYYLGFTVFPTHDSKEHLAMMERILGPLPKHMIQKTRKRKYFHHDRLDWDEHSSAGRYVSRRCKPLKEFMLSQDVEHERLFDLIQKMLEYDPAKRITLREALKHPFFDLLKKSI

`CC1(Nc2nc(Nc3cnn([C@H]4CCN(C5COC5)C[C@@H]4F)c3Cl)nc3[nH]cc(C#N)c23)CC1` [Example 52, 2-((5-chloro-1-((3S,4S)-3-fluoro-1-(oxetane-3-yl)piperidine-4-yl)-1H-pyrazole-4-yl)amino)((1-methylcyclopropyl)amino)-7H-pyrrolo[2,3-d]pyrimidine-5-carbonitrile]: the remaining binding at 1 µM in assay [1] amounted to 42%; in assay [2], 70%; in assay [3], 41%; in assay [4] it was 81%; in assay [5] it was 95%; in assay [6], 0.6%. In addition, the remaining binding at 1 µM in assay [7] was 78%.
Consider `CCNc1nc(Nc2ccc(C(=O)N3CCC(N4CCOCC4)CC3)cc2OC)nc2[nH]cc(C(F)(F)F)c12` [Example 104, (4-((4-(ethylamino)-5-(trifluoromethyl)-7H-pyrrolo[2,3-d]pyrimidine-2-yl)amino)-3-methoxyphenyl)(4-morpholinopiperidine-1-yl)methanone], for which the remaining binding at 1 µM in assay [1] came to 93%; in assay [2], 100%; in assay [3], 100%; in assay [4], 83%; in assay [5], 100%; in assay [6], 0.15%. The remaining binding at 1 µM in assay [7] was found to be 72%.
Consider `CNc1nc(Nc2ccc(C(=O)N3CCOCC3)cc2OC)nc2[nH]cc(C#N)c12` [Example 1, 2-((2-methoxy-4-(morpholine-4-carbonyl)phenyl)amino)-4-(methylamino)-7H-pyrrolo[2,3-d]pyrimidine-5-carbonitrile], for which the remaining binding at 1 µM is 95% in assay [1]; 81% in assay [2]; 100% in assay [3]; 100% in assay [4]; 89% in assay [5]; 1.8% in assay [6]. The compound further came in with a remaining binding at 1 µM in assay [7] of 95%.
